# Literature values as cited in patent US10092609B2, “Process for preparing medicinal mycological preparations” (priority 2015, dated 2018).
# Details: in vivo
compound,measurement,value
CC[C@H](C)C(=O)O[C@H]1C[C@@H](C)C=C2C=C[C@H](C)[C@H](CC[C@@H]3C[C@@H](O)CC(=O)O3)[C@H]21 [lovastatin],reduction of “bad” LDL-cholesterol in circulation,about 20%
